Source: the supplement of paper PMC10307832

Key:
Assay in all cases: relative viability (nuclei count vs DMSO), 5 days (fraction); higher = more cells survive
Kobe2602 + Bortezomib = compound: C1=CC(=CC=C1NC(=S)NNC2=C(C=C(C=C2[N+](=O)[O-])C(F)(F)F)[N+](=O)[O-])F [Kobe2602] + CC(C)C[C@H](NC(=O)[C@H](Cc1ccccc1)NC(=O)c1cnccn1)B(O)O [Bortezomib] (partner 0.002 µM)
Procedure, shortened: (§1)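 Dosing by pin tool came one day after lung cancer cell lines were seeded in 1536-well plates, using either one drug or a fixed anchor-drug dose plus five library-drug doses (not always all listed) in √10 steps. After 5 days, nuclei were counted on 4× images. Relative viability is treated-well nuclei count divided by vehicle-well nuclei count, and values are medians of duplicate plates.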

[1] = compound: COc1cc2nccc(Oc3ccc(NC(=O)C4(C(=O)Nc5ccc(F)cc5)CC4)cc3)c2cc1OC [Cabozantinib] + Nc1nc2[nH]cc(CCc3ccc(C(=O)N[C@@H](CCC(=O)O)C(=O)O)cc3)c2c(=O)[nH]1 [Pemetrexed] (partner 0.2 µM)
Procedure, shortened: as §1

Cabozantinib + Lapatinib = compound: COc1cc2nccc(Oc3ccc(NC(=O)C4(C(=O)Nc5ccc(F)cc5)CC4)cc3)c2cc1OC [Cabozantinib] + CS(=O)(=O)CCNCc1ccc(-c2ccc3ncnc(Nc4ccc(OCc5cccc(F)c5)c(Cl)c4)c3c2)o1 [Lapatinib] (partner 2 µM)
Procedure, shortened: as §1

Zosuquidar + Navitoclax = compound: O[C@@H](COc1cccc2ncccc12)CN1CCN([C@@H]2c3ccccc3[C@@H]3[C@H](c4ccccc42)C3(F)F)CC1 [Zosuquidar] + CC1(C)CCC(c2ccc(Cl)cc2)=C(CN2CCN(c3ccc(C(=O)NS(=O)(=O)c4ccc(N[C@H](CCN5CCOCC5)CSc5ccccc5)c(S(=O)(=O)C(F)(F)F)c4)cc3)CC2)C1 [Navitoclax] (partner 0.5 µM)
Procedure, shortened: as §1

## UMC-11
Kobe2602 + Bortezomib; first compound 0.2 µM
  relative viability: 0.779
Kobe2602 + Bortezomib; first compound 0.6325 µM
  relative viability: 0.819
Kobe2602 + Bortezomib; first compound 2 µM
  relative viability: 0.795
Kobe2602 + Bortezomib; first compound 6.325 µM
  relative viability: 0.628
Kobe2602 + Bortezomib; first compound 20 µM
  relative viability: 0.645
[1]; first compound 0.02 µM
  relative viability: 0.802
[1]; first compound 0.06325 µM
  relative viability: 0.879
[1]; first compound 0.2 µM
  relative viability: 0.782
[1]; first compound 0.6325 µM
  relative viability: 0.837
[1]; first compound 2 µM
  relative viability: 0.747
Cabozantinib + Lapatinib; first compound 0.02 µM
  relative viability: 1.05
Cabozantinib + Lapatinib; first compound 0.06325 µM
  relative viability: 1.41
Cabozantinib + Lapatinib; first compound 0.2 µM
  relative viability: 0.86
Cabozantinib + Lapatinib; first compound 0.6325 µM
  relative viability: 1.07
Cabozantinib + Lapatinib; first compound 2 µM
  relative viability: 0.91
Zosuquidar + Navitoclax; first compound 0.01 µM
  relative viability: 0.323
Zosuquidar + Navitoclax; first compound 0.03162 µM
  relative viability: 0.294
Zosuquidar + Navitoclax; first compound 0.1 µM
  relative viability: 0.341
Zosuquidar + Navitoclax; first compound 0.3162 µM
  relative viability: 0.339
Zosuquidar + Navitoclax; first compound 1 µM
  relative viability: 0.292
